Data taken from ChEMBL document CHEMBL3137386, “DNDi T. cruzi fenarimol series dataset from which preclinical candidate EPL-BS1246 was identified (see also related datasets CHEMBL2448688 and CHEMBL3137440)”.
pIC50: −log10 of the molar value. Values after ≈ are worked out from the molar mass of the structure shown. Values joined by “and” are separate entries in the source; they are usually repeats but may differ in a detail not shown here. Equal entries are not always repeated.

Legend:
[1] = tested on: Trypanosoma cruzi; experiment: (§1) DNDI: Chagas in vitro; assay type: functional, organism-based, Tulahuen C4 (LacZ)
[2] = tested on: Trypanosoma cruzi; experiment: as §1; assay type: functional, Tulahuen C4 (LacZ)
[3] = tested on: Trypanosoma brucei rhodesiense; experiment: DNDI: HAT in vitro; assay type: functional, organism-based; settings: ATCC 30027
[4] = (§2) DNDI: Cytotoxicity against L-6 rat myoblasts from skeletal muscle; assay type: toxicity, cell-based, Muscle tissue, L6; settings: rat, L6 rat skeletal muscle myoblasts
[5] = DNDI: Lipophilicity (gLogD) at pH 3; assay type: physicochemical; settings: buffer
[6] = biological target: T1, Cytochrome P450 3A4 (Homo sapiens, UniProt P08684); experiment: (§3) DNDI: CYP Inhibition; assay type: ADME
[7] = DNDI: Metabolism; assay type: ADME, Microsome; settings: human, microsomes; for hepatic extraction ratio: read-out: EH
[8] = DNDI: Solubility in 0.01M HCl at pH 2 determined by nephelometry; assay type: physicochemical; settings: 0.01 M HCl
[9] = tested on: L6; experiment: as §2; assay type: toxicity, cell-based, Muscle tissue; settings: l6
[10] = biological target: T1, Cytochrome P450 3A4; experiment: as §3; assay type: ADME; remark: listed apart in the source
[11] = DNDI: Lipophilicity (gLogD) at pH 7.4; assay type: physicochemical; settings: buffer
[12] = DNDI: Solubility in phosphate buffer at pH 6.5 determined by nephelometry; assay type: physicochemical
[13] = Trypanosoma cruzi, Tulahuen C4 (LacZ)

T1 sequence (P08684 whole entry): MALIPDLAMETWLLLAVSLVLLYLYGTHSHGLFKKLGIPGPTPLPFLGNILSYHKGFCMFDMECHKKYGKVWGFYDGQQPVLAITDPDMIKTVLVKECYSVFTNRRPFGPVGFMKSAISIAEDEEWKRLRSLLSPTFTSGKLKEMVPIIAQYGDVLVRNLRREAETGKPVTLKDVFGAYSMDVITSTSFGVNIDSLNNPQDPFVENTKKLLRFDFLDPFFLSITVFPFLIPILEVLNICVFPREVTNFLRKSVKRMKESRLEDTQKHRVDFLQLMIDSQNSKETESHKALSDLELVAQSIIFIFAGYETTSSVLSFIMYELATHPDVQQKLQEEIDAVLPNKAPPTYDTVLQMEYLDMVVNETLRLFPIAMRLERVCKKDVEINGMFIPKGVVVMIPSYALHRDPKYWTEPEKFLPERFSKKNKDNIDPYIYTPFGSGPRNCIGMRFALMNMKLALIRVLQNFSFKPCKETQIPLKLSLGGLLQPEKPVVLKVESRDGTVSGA

Structure (SMILES)	pIC50 [1, 13]	IC90 [2, 13]	pIC50 [3]	chromatographic logD [5]	pIC50 [1]	pIC50 [6]	IC90 [2]	Clint [7]	EH [7]	half-life [7]	microsomal CLint [7]	t (1 / 2) [7]	hepatic extraction ratio [7]	solubility kinetic [8]	pIC50 [10]	chromatographic logD [11]	solubility kinetic [12]	pIC50 [4]	pIC50 [9]
COCCN1CCN(C(=O)C(c2ccc(Cl)cc2)c2cccnc2)CC1 (stereo not given)	< 7.00	> 100 nM	< 5.00															< 4.00	
O=C(C(c1ccc(Cl)cc1)c1cccnc1)N1CCN(Cc2cccc(C(F)(F)F)c2)CC1 (stereo not given)	7.83	> 100 nM	< 5.00																
O=C(C(c1ccc(Cl)cc1)c1cccnc1)N1CCN(c2ccc(C(F)(F)F)nc2)CC1 (stereo not given)			< 5.00	3.2		< 4.70	> 100 nM and 1030 nM	36 µL/min/mg and 61 µL/min/mg	0.77 and 0.7	41 min	42 µL/min/mg	49 min and 28 min	0.67	> 100 µg/mL	4.70			4.18	

Continued, in another order:

pIC50 [1, 13]	IC90 [2, 13]	pIC50 [3]	chromatographic logD [5]	pIC50 [1]	pIC50 [6]	IC90 [2]	Clint [7]	EH [7]	half-life [7]	microsomal CLint [7]	t (1 / 2) [7]	hepatic extraction ratio [7]	solubility kinetic [8]	pIC50 [10]	chromatographic logD [11]	solubility kinetic [12]	Structure (SMILES)	pIC50 [4]	pIC50 [9]
		< 5.00	3.5	8.00 and 7.92 and 7.17	< 4.70	27 nM and 71.5 nM and > 100 nM	42 µL/min/mg and 38 µL/min/mg	0.68 and 0.7	50 min	35 µL/min/mg	41 min and 45 min	0.66	> 100 µg/mL				N#Cc1ccc(C(C(=O)N2CCN(c3ccc(C(F)(F)F)cc3)CC2)c2cccnc2)cc1 (stereo not given)	4.13	4.26
	> 100 nM	< 5.00	2.5	7.26 and < 7.00 and 7.69	< 4.70	81.5 nM	22 µL/min/mg and 21 µL/min/mg	0.56 and 0.54	144 min	12 µL/min/mg	77 min and 81 min	0.4	> 100 µg/mL		3	12.5 µg/mL (≈ 27.7 µM)	N#Cc1ccc(C(C(=O)N2CCN(c3ccc(C(F)(F)F)nc3)CC2)c2cccnc2)cc1 (stereo not given)	< 4.00	
